Results published in ChEMBL document CHEMBL1201862, “PubChem BioAssay data set” (2004).
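Compound exposure: 48 hours, 5 concentrations, 96-well plates. Abbreviation: GI50, concentration required for 50% inhibition of growth.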 Activity calls are given as the source filed them. No stated cut-off is given here; in the data, active = GI50 up to about 1.1 µM and inactive = higher.

Experiments:
Assay in all cases: growth of human tumour cells (NCI), 48 h
NCI/ADR-RES = system: NCI/ADR-RES
KM-20L2 = system: KM-20L2
UO-31 = system: UO-31
786-0 = system: 786-0
ACHN = system: ACHN
SK-MEL-28 = system: SK-MEL-28
UACC-62 = system: UACC-62
SK-MEL-2 = system: SK-MEL-2
KM12 = system: KM12
RPMI-8226 = system: RPMI-8226
SW-620 = system: SW-620
MDA-MB-435 = system: MDA-MB-435
LOX IMVI = system: LOX IMVI
OVCAR-5 = system: OVCAR-5
DMS-273 = system: DMS-273
T47D = system: T47D
NCI-H23 = system: NCI-H23
NCI-H522 = system: NCI-H522
DLD-1 = system: DLD-1
HOP-62 = system: HOP-62
SNB-19 = system: SNB-19
MCF7 = system: MCF7
RXF 393 = system: RXF 393
SNB-78 = system: SNB-78
SF-539 = system: SF-539
TK-10 = system: TK-10
IGROV-1 = system: IGROV-1
EKVX = system: EKVX
Hs-578T = system: Hs-578T
DU-145 = system: DU-145
OVCAR-8 = system: OVCAR-8
HCT-15 = system: HCT-15
NCI-H460 = system: NCI-H460
SK-OV-3 = system: SK-OV-3
MDA-N = system: MDA-N
PC-3 = system: PC-3
HL-60 = system: HL-60
HT-29 = system: HT-29
COLO 205 = system: COLO 205
HOP-92 = system: HOP-92
UACC-257 = system: UACC-257
MDA-MB-231 = system: MDA-MB-231
SN12C = system: SN12C
BT-549 = system: BT-549
MOLT-4 = system: MOLT-4
OVCAR-3 = system: OVCAR-3
HCC 2998 = system: HCC 2998
A549 = system: A549
CCRF-CEM = system: CCRF-CEM
A498 = system: A498
M14 = system: M14
SK-MEL-5 = system: SK-MEL-5
LXFL 529 = system: LXFL 529
DMS-114 = system: DMS-114
SF-295 = system: SF-295
U-251 = system: U-251
Malme-3M = system: Malme-3M
K562 = system: K562
OVCAR-4 = system: OVCAR-4
CAKI-1 = system: CAKI-1
SF-268 = system: SF-268
HCT-116 = system: HCT-116
NCI-H226 = system: NCI-H226
SR = system: SR
M19-MEL = system: M19-MEL
SNB-75 = system: SNB-75

Measured: GI50

O=C1c2cccc(NCCCNCCO)c2C(=O)c2cccc(NCCCNCCO)c21
active: NCI-H522 0.373 µM | MCF7 0.325 µM | Hs-578T 0.627 µM | SN12C 0.935 µM | MOLT-4 0.769 µM | HCC 2998 0.9 µM | CCRF-CEM 0.701 µM
8.99 µM: HCT-15
inactive: NCI/ADR-RES 13.7 µM | KM-20L2 2.75 µM | UO-31 9.59 µM | 786-0 2.08 µM | ACHN 2.08 µM | SK-MEL-28 1.83 µM | UACC-62 2.01 µM | SK-MEL-2 1.85 µM | KM12 2.12 µM | RPMI-8226 2.44 µM | SW-620 2.4 µM | MDA-MB-435 1.67 µM | LOX IMVI 2.29 µM | OVCAR-5 2.31 µM | DMS-273 2.31 µM | T47D 3.27 µM | NCI-H23 1.81 µM | DLD-1 2.34 µM | HOP-62 1.96 µM | SNB-19 1.15 µM | RXF 393 2.13 µM | SNB-78 3.46 µM | SF-539 1.49 µM | TK-10 3.85 µM | IGROV-1 2.81 µM | EKVX 2.94 µM | DU-145 2.62 µM | OVCAR-8 2.16 µM | NCI-H460 1.68 µM | SK-OV-3 2.25 µM | MDA-N 1.71 µM | PC-3 2.41 µM | HL-60 1.27 µM | HT-29 2.02 µM | COLO 205 1.8 µM | HOP-92 1.55 µM | UACC-257 6.08 µM | MDA-MB-231 1.42 µM | BT-549 2.05 µM | OVCAR-3 3.05 µM | A549 2 µM | A498 2.8 µM | M14 3.61 µM | SK-MEL-5 2 µM

CCN(CC)CCNC(=O)c1ccc([N+](=O)[O-])cc1OC
inactive: LXFL 529 > 100 µM | KM-20L2 > 100 µM | UO-31 > 100 µM | 786-0 > 100 µM | ACHN > 100 µM | SK-MEL-28 > 100 µM | UACC-62 > 100 µM | DMS-114 > 100 µM | SK-MEL-2 > 100 µM | KM12 > 100 µM | SF-295 > 100 µM | SW-620 > 100 µM | U-251 > 100 µM | LOX IMVI > 100 µM | OVCAR-5 > 100 µM | Malme-3M > 100 µM | DMS-273 > 100 µM | NCI-H23 > 100 µM | NCI-H522 > 100 µM | DLD-1 > 100 µM | HOP-62 > 100 µM | SNB-19 > 100 µM | K562 > 100 µM | RXF 393 > 100 µM | OVCAR-4 > 100 µM | SNB-78 > 100 µM | SF-539 > 100 µM | TK-10 > 100 µM | IGROV-1 > 100 µM | EKVX > 100 µM | OVCAR-8 > 100 µM | NCI-H460 > 100 µM | CAKI-1 > 100 µM | SF-268 > 100 µM | SK-OV-3 > 100 µM | HL-60 > 100 µM | HCT-116 > 100 µM | HT-29 > 100 µM | COLO 205 > 100 µM | HOP-92 > 100 µM | UACC-257 > 100 µM | SN12C > 100 µM | MOLT-4 > 100 µM | OVCAR-3 > 100 µM | NCI-H226 > 100 µM | A549 > 100 µM | CCRF-CEM > 100 µM | SR > 100 µM | M19-MEL > 100 µM | A498 > 100 µM | SNB-75 > 100 µM | M14 > 100 µM | SK-MEL-5 > 100 µM
> 100 µM: HCT-15

COc1ccc(/C=C/C(=O)c2ccccc2)cc1OC
inactive: NCI/ADR-RES 21.2 µM | UO-31 13.3 µM | 786-0 4.97 µM | ACHN 15.5 µM | SK-MEL-28 21.1 µM | UACC-62 13.4 µM | SK-MEL-2 17.3 µM | KM12 3.13 µM | SF-295 16.4 µM | RPMI-8226 7.41 µM | SW-620 4.23 µM | MDA-MB-435 4.59 µM | U-251 9.59 µM | LOX IMVI 5.46 µM | OVCAR-5 16.9 µM | Malme-3M 16.7 µM | T47D 10.8 µM | NCI-H23 20.7 µM | NCI-H522 6.85 µM | HOP-62 15.4 µM | SNB-19 11.2 µM | MCF7 2.52 µM | K562 3.21 µM | RXF 393 14.3 µM | OVCAR-4 16.7 µM | SF-539 11.1 µM | TK-10 17.2 µM | IGROV-1 17.2 µM | EKVX 14.8 µM | Hs-578T 25 µM | DU-145 11.4 µM | OVCAR-8 16.3 µM | NCI-H460 16.6 µM | CAKI-1 15.7 µM | SF-268 14.5 µM | SK-OV-3 14.2 µM | MDA-N 4.13 µM | PC-3 11.3 µM | HL-60 8.89 µM | HCT-116 6.38 µM | HT-29 5.3 µM | COLO 205 15.9 µM | HOP-92 18.5 µM | UACC-257 17.3 µM | MDA-MB-231 19.5 µM | SN12C 14.6 µM | BT-549 18.2 µM | MOLT-4 13.5 µM | OVCAR-3 11.4 µM | NCI-H226 19.8 µM | HCC 2998 17.9 µM | A549 20.9 µM | CCRF-CEM 2.53 µM | SR 3.15 µM | A498 16.4 µM | SNB-75 14 µM | M14 15 µM | SK-MEL-5 16.8 µM
7.03 µM: HCT-15
